In patent publication US8648068B2, “Heterocycloalkyl-containing thienopyrimidines for pharmaceutical compositions” (Boehringer Ingelheim International GmbH, priority 2010, dated 2014):

Target: T1, human Mnk2a (Homo sapiens, UniProt Q9HBH9)
T1 construct: made in house; host or cells: E. coli BL21 (vector pGEX-4T1)
Experiment: Mnk2a in vitro kinase assay (indirect fluorescence polarization)
Assay type: biochemical
Details: GST-Mnk2a pre-activated with ERK2, 20 μM ATP, 30 μM substrate peptide; read-out: MNK2 IC50
Method in brief: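 Indirect competitive fluorescence polarization: kinase-generated phospho-product displaces a fluorophore-labelled phospho-peptide from a phospho-specific antibody. Enzyme is N-terminal GST-Mnk2a from E. coli, activated with pre-activated ERK2 and 50 μM ATP; substrate is an amidated 12-mer peptide around eIF4E Ser209.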

T1 sequence (Q9HBH9 whole entry): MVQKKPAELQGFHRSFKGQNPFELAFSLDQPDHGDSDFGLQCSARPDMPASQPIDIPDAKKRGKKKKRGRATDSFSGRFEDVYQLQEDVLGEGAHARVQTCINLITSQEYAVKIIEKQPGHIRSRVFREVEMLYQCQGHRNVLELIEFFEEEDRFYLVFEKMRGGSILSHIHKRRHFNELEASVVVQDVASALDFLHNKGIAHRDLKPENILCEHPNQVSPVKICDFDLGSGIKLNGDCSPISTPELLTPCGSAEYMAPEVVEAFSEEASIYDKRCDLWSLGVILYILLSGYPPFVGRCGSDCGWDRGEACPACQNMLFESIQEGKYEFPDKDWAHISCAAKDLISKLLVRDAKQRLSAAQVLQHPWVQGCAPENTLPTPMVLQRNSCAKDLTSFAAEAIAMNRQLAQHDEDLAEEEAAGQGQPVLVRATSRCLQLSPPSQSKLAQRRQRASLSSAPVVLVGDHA

SMILES	IC50
CONC(=O)c1sc2ncnc(Nc3ccc(F)cc3O[C@@H]3CCOC3)c2c1C [Example 102, 4-{4-Fluoro-2-[(R)-(tetrahydro-furan-3-yl)oxy]-phenylamino}-5-methyl-thieno[2,3-d]pyrimidine-6-carboxylic acid methoxy-amide]	0.032 µM
Cc1c(C(=O)NCCCN(C)C)sc2ncnc(Nc3ccc(F)cc3O[C@@H]3CCOC3)c12 [Example 103, 4-{4-Fluoro-2-[(R)-(tetrahydro-furan-3-yl)oxy]-phenylamino}-5-methyl-thieno[2,3-d]pyrimidine-6-carboxylic acid (3-dimethylamino-propyl)-amide]	0.026 µM
Cc1c(C(N)=O)sc2ncnc(Nc3ccc(F)cc3O[C@@H]3CCOC3)c12 [Example 104]	0.012 µM
Cc1c(C(=O)NCC2CN(C)CCO2)sc2ncnc(Nc3ccc(F)cc3O[C@@H]3CCOC3)c12 (some centres unmarked) [Example 105]	0.02 µM
Cc1c(C(=O)NCCCN2CCCC2)sc2ncnc(Nc3ccc(F)cc3O[C@@H]3CCOC3)c12 [Example 106]	0.025 µM
Cc1c(C(=O)NC2CC2)sc2ncnc(Nc3ccc(F)cc3O[C@@H]3CCOC3)c12 [Example 107]	0.026 µM
Cc1c(C(=O)NCCCN(C)C)sc2ncnc(Nc3ccc(F)cc3O[C@H]3CCOC3)c12 [Example 108, 4-{4-Fluoro-2-[(S)-(tetrahydro-furan-3-yl)oxy]-phenylamino}-5-methyl-thieno[2,3-d]pyrimidine-6-carboxylic acid (3-dimethylamino-propyl)-amide]	0.026 µM
Cc1c(C(N)=O)sc2ncnc(Nc3ccc(F)cc3O[C@H]3CCOC3)c12 [Example 109]	0.009 µM
Cc1c(C(=O)NCC2CN(C)CCO2)sc2ncnc(Nc3ccc(F)cc3O[C@H]3CCOC3)c12 (some centres unmarked) [Example 110]	0.021 µM
Cc1c(C(=O)NCCCN2CCCC2)sc2ncnc(Nc3ccc(F)cc3O[C@H]3CCOC3)c12 [Example 111]	0.022 µM
Cc1c(C(=O)NC2CC2)sc2ncnc(Nc3ccc(F)cc3O[C@H]3CCOC3)c12 [Example 112]	0.021 µM
Cc1c(C(N)=O)sc2ncnc(Nc3ccc(F)cc3O[C@H]3C[C@@H](CO)N(S(C)(=O)=O)C3)c12 [Example 113, 4-[4-Fluoro-2-((3S,5S)-5-hydroxymethyl-1-methanesulfonyl-pyrrolidin-3-yloxy)-phenylamino]-5-methyl-thieno[2,3-d]pyrimidine-6-carboxylic acid amide]	0.42 µM
COC(=O)c1sc2ncnc(Nc3ccc(F)cc3O[C@H]3C[C@H]4COC(=O)N4C3)c2c1C [Example 114, 4-[4-Fluoro-2-((6S,7aS)-3-oxo-tetrahydro-pyrrolo[1,2-d]oxazol-6-yloxy)-phenylamino]-5-methyl-thieno[2,3-d]pyrimidine-6-carboxylic acid methyl ester]	0.55 µM
Cc1c(C(N)=O)sc2ncnc(Nc3ccc(F)cc3O[C@@H]3CN[C@H](CO)C3)c12 [Example 115, 4-[4-Fluoro-2-((3S,5S)-5-hydroxymethyl-pyrrolidin-3-yloxy)-phenylamino]-5-methyl-thieno[2,3-d]pyrimidine-6-carboxylic acid amide]	0.1 µM
Cc1c(C(=O)NCC2CN(C)CCO2)sc2ncnc(Nc3ccc(F)cc3OC3CCOCC3)c12 (centres unmarked) [Example 116, 4-[4-Fluoro-2-(tetrahydro-pyran-4-yloxy)-phenylamino]-5-methyl-thieno[2,3-d]pyrimidine-6-carboxylic acid (4-methyl-morpholin-2-ylmethyl)-amide trifluoracetate]	0.022 µM
Cc1c(C(=O)NCC2CN(C)CCO2)sc2ncnc(Nc3ccc(F)cc3OC3CCOCC3)c12 (centres unmarked) [Example 117]	0.022 µM

SMILES	IC50
Cc1c(C(=O)NCCCN2CCCC2)sc2ncnc(Nc3ccc(F)cc3OC3CCOCC3)c12 [Example 118]	0.029 µM
Cc1c(C(=O)NCCCN2CCN(C)CC2)sc2ncnc(Nc3ccc(F)cc3OC3CCOCC3)c12 [Example 120]	0.022 µM
COC[C@H]1CCCN1CCCNC(=O)c1sc2ncnc(Nc3ccc(F)cc3OC3CCOCC3)c2c1C [Example 121]	0.033 µM
COC[C@@H]1CCCN1CCCNC(=O)c1sc2ncnc(Nc3ccc(F)cc3OC3CCOCC3)c2c1C [Example 122]	0.048 µM
Cc1c(C(=O)NCCCN2CCC(F)(F)C2)sc2ncnc(Nc3ccc(F)cc3OC3CCOCC3)c12 [Example 124]	0.031 µM
Cc1c(C(=O)NCCCN2CC(F)(F)C2)sc2ncnc(Nc3ccc(F)cc3OC3CCOCC3)c12 [Example 125]	0.025 µM
Cc1c(C(=O)NCCCN(C)CCN(C)C)sc2ncnc(Nc3ccc(F)cc3OC3CCOCC3)c12 [Example 126]	0.026 µM
Cc1c(C(=O)NCC2CNCCO2)sc2ncnc(Nc3ccc(F)cc3OC3CCOCC3)c12 (centres unmarked) [Example 127]	0.017 µM
Cc1c(C(=O)N[C@H]2CC[C@H](CO)CC2)sc2ncnc(Nc3ccc(F)cc3OC3CCOCC3)c12 [Example 129]	0.032 µM
Cc1c(C(=O)NCCCN2CCCC2=O)sc2ncnc(Nc3ccc(F)cc3OC3CCOCC3)c12 [Example 131]	0.035 µM
Cc1c(C(=O)N[C@@H]2CC[C@H](N)C2)sc2ncnc(Nc3ccc(F)cc3OC3CCOCC3)c12 [Example 142]	0.038 µM
Cc1c(C(=O)NCCCc2c[nH]cn2)sc2ncnc(Nc3ccc(F)cc3OC3CCOCC3)c12 [Example 169]	0.038 µM
Cc1c(C(=O)N[C@H]2CC[C@@](C)(O)CC2)sc2ncnc(Nc3ccc(F)cc3OC3CCOCC3)c12 [Example 170]	0.125 µM
Cc1c(C(=O)NCC2CCOCC2)sc2ncnc(Nc3ccc(F)cc3OC3CCOCC3)c12 [Example 172]	0.043 µM
Cc1c(C(=O)N[C@H]2CC[C@H](O)CC2)sc2ncnc(Nc3ccc(F)cc3OC3CCOCC3)c12 [Example 173]	0.039 µM
Cc1c(C(=O)NC2CCN(C)CC2)sc2ncnc(Nc3ccc(F)cc3OC3CCOCC3)c12 [Example 174]	0.06 µM

The next lines start with the values.

IC50	SMILES
0.026 µM	Cc1c(C(=O)NCCC2CCCN2C)sc2ncnc(Nc3ccc(F)cc3OC3CCOCC3)c12 (centres unmarked) [Example 119]
0.038 µM	Cc1c(C(=O)NCC2CCCN(C)C2)sc2ncnc(Nc3ccc(F)cc3OC3CCOCC3)c12 (centres unmarked) [Example 123]
0.041 µM	Cc1c(C(=O)NCC(N)=O)sc2ncnc(Nc3ccc(F)cc3OC3CCOCC3)c12 [Example 128]
0.036 µM	CC(=O)NCCCNC(=O)c1sc2ncnc(Nc3ccc(F)cc3OC3CCOCC3)c2c1C [Example 130]
0.016 µM	Cc1c(C(=O)NCC#CCN)sc2ncnc(Nc3ccc(F)cc3OC3CCOCC3)c12 [Example 134]
0.043 µM	Cc1c(C(=O)NC(C)C)sc2ncnc(Nc3ccc(F)cc3OC3CCOCC3)c12 [Example 135]
0.071 µM	Cc1c(C(=O)N[C@H]2C[C@H]2N)sc2ncnc(Nc3ccc(F)cc3OC3CCOCC3)c12 [Example 136]
0.092 µM	Cc1c(C(=O)NCC2(N)CCCC2)sc2ncnc(Nc3ccc(F)cc3OC3CCOCC3)c12 [Example 140]
0.041 µM	Cc1c(C(=O)N[C@H]2C[C@H](N)C2)sc2ncnc(Nc3ccc(F)cc3OC3CCOCC3)c12 [Example 143]
0.047 µM	Cc1c(C(=O)N[C@H]2C[C@@H]2N)sc2ncnc(Nc3ccc(F)cc3OC3CCOCC3)c12 [Example 144]
0.07 µM	CNCCNC(=O)c1sc2ncnc(Nc3ccc(F)cc3OC3CCOCC3)c2c1C [Example 146]
0.015 µM	Cc1c(C(=O)N[C@H](C)C(=O)O)sc2ncnc(Nc3ccc(F)cc3OC3CCOCC3)c12 [Example 147]
0.068 µM	Cc1c(C(=O)N[C@@H](C)C(=O)O)sc2ncnc(Nc3ccc(F)cc3OC3CCOCC3)c12 [Example 148]
0.037 µM	Cc1c(C(=O)NCC(=O)O)sc2ncnc(Nc3ccc(F)cc3OC3CCOCC3)c12 [Example 149]
0.07 µM	Cc1c(C(=O)NCC2CCC(=O)N2)sc2ncnc(Nc3ccc(F)cc3OC3CCOCC3)c12 (centres unmarked) [Example 150]
0.057 µM	Cc1c(C(=O)NCCn2ccnc2)sc2ncnc(Nc3ccc(F)cc3OC3CCOCC3)c12 [Example 151]
0.04 µM	Cc1c(C(=O)NCCCO)sc2ncnc(Nc3ccc(F)cc3OC3CCOCC3)c12 [Example 152]

IC50	SMILES
0.113 µM	Cc1c(C(=O)NC(CO)CO)sc2ncnc(Nc3ccc(F)cc3OC3CCOCC3)c12 [Example 153]
0.215 µM	Cc1c(C(=O)NCC(C)(C)CN(C)C)sc2ncnc(Nc3ccc(F)cc3OC3CCOCC3)c12 [Example 154]
0.038 µM	Cc1c(C(=O)NCCCCO)sc2ncnc(Nc3ccc(F)cc3OC3CCOCC3)c12 [Example 155]
0.05 µM	Cc1c(C(=O)NC(C)CO)sc2ncnc(Nc3ccc(F)cc3OC3CCOCC3)c12 (centres unmarked) [Example 156]
0.065 µM	Cc1c(C(=O)NCC(=O)N(C)C)sc2ncnc(Nc3ccc(F)cc3OC3CCOCC3)c12 [Example 157]
0.042 µM	Cc1c(C(=O)NCC(C)O)sc2ncnc(Nc3ccc(F)cc3OC3CCOCC3)c12 (centres unmarked) [Example 158]
0.044 µM	Cc1c(C(=O)NCC(F)(F)F)sc2ncnc(Nc3ccc(F)cc3OC3CCOCC3)c12 [Example 159]
0.059 µM	CCOCCNC(=O)c1sc2ncnc(Nc3ccc(F)cc3OC3CCOCC3)c2c1C [Example 160]
0.056 µM	CCCOCCNC(=O)c1sc2ncnc(Nc3ccc(F)cc3OC3CCOCC3)c2c1C [Example 161]
0.06 µM	COCC(C)NC(=O)c1sc2ncnc(Nc3ccc(F)cc3OC3CCOCC3)c2c1C (centres unmarked) [Example 163]
0.027 µM	Cc1c(C(=O)NCC#N)sc2ncnc(Nc3ccc(F)cc3OC3CCOCC3)c12 [Example 164]
0.039 µM	Cc1c(C(=O)NCCC(N)=O)sc2ncnc(Nc3ccc(F)cc3OC3CCOCC3)c12 [Example 165]
0.037 µM	CNC(=O)CCNC(=O)c1sc2ncnc(Nc3ccc(F)cc3OC3CCOCC3)c2c1C [Example 166]
0.043 µM	Cc1c(C(=O)NCCC(=O)N(C)C)sc2ncnc(Nc3ccc(F)cc3OC3CCOCC3)c12 [Example 167]
0.023 µM	Cc1c(C(=O)NCCCCCN(C)C)sc2ncnc(Nc3ccc(F)cc3OC3CCOCC3)c12 [Example 168]
0.041 µM	Cc1c(C(=O)NCCc2cnn(C)c2)sc2ncnc(Nc3ccc(F)cc3OC3CCOCC3)c12 [Example 171]
